Assay results published in paper PMC10060354, “Discovery of a small molecule ligand of FRS2 that inhibits invasion and tumor growth” (Cellular Oncology, 2022).
Read-outs that look alike come from different tables or passages of the source.

How the values were obtained:
[1] = system: DAOY cells; test: Spheroid invasion assay (SIA), bFGF-induced collagen I invasion; type: cell-based, human; settings: for EC50: DAOY cells, n = 3 technical replicas, read-out: EC50 for the inhibition of bFGF-induced collagen I invasion
Experimental: 1000—2500 cells/well in 100 μl were seeded in 96 well Corning® Spheroid microplate (CLS4520, Sigma-Aldrich) or in cell-repellent 96 well microplate (650,790, Greiner Bio-one). SIA and analysis was performed as described before. In brief: After spheroid formation (24 – 72 h after seeding), 70 µl medium was removed and replaced with the collagen mixture (2.5 mg/ml Pure Col Collagen I (Advanced Biomatrix)), DMEM 1x (from 10 × stock, Sigma, D2429) and 0.4% Sodium bicarbonate (Sigma, S8761)), resulting in a final collagen concentration of 1.75 mg/ml. Embedded spheroids were stimulated with bFGF (100 ng/ml if not otherwise stated), HGF (30 ng /ml) or EGF (20 ng/ml) and distance of invaded cells quantified 24 – 48 h after embedding. Compounds and BGJ398 were added in Dimethylsulfoxid (DMSO) and corresponding DMSO concentrations were used in control samples.

[2] = Semi-thermodynamic solubility; type: physicochemical; settings: for solubility: Room Temp, Overnight, LC-MSMS
Experimental: In vitro ADME-T assays were performed by Cyprotex (Cyprotex Discovery, Cheshire, UK). […] The solution was agitated at ambient temperature overnight. The solutions were then centrifuged for 30 min at 3000 rpm at RT. The supernatant was removed and centrifuged for a further 30 min under the same conditions. An aliquot of the resulting supernatant was diluted in 50% methanol in water (containing an internal standard for MS analysis) prior to analysis by LC–MS/MS. […] These stocks were diluted in 50% methanol in water (containing an internal standard for MS analysis) prior to analysis by LC–MS/MS. The solubility of the shortlisted hits was calculated from a linear or quadratic fit of the standard curve.

[3] = system: Caco-2 cells; test: CaCo-2 permeability (bi-directional); settings: Direction A2B
Experimental: (§1) Caco-2 cells obtained from the ATCC were used between passage numbers 40—60. Cells were seeded onto Millipore Multiscreen Transwell plates at 1 × 10^5 cells/cm^2. The cells were cultured in DMEM and media was changed every two or three days. On day 20, the permeability study was performed. […] Cells were then incubated with HBSS at the desired pH in both apical and basolateral compartments for 40 min to stabilize physiological parameters.
(§2) The fluorescent integrity marker lucifer yellow was also included in the dosing solution. Analytical standards were prepared from test compound DMSO dilutions and transferred to buffer, maintaining a 1% v/v DMSO concentration.
(§3) For assessment of A-B permeability, HBSS was removed from the apical compartment and replaced with test compound dosing solution. The apical compartment insert was then placed into a companion plate containing fresh buffer (containing 1% v/v DMSO). For assessment of B-A permeability, HBSS was removed from the companion plate and replaced with test compound dosing solution. Fresh buffer (containing 1% v/v DMSO) was added to the apical compartment insert, which was then placed into the companion plate.
(§4) Compound permeability was assessed in duplicate. Compounds of known permeability characteristics were run as controls on each assay plate.
(§5) Test and control compounds were quantified by LC–MS/MS cassette analysis using a 7-point calibration with appropriate dilution of the samples. The starting concentration (C0) was determined from the dosing solution and the experimental recovery calculated from C0 and both apical and basolateral compartment concentrations. The integrity of the monolayer throughout the experiment was checked by monitoring lucifer yellow permeation using fluorimetric analysis.
(§6) The permeability coefficient (Papp) for each compound was calculated from the following equation: Papp=dQ/dtC0×A where dQ/dt was the rate of permeation of the drug across the cells, C0 was the donor compartment concentration at time zero and A was the area of the cell monolayer. C0 was obtained from analysis of the dosing solution.
(§7) Efflux ratio (ER) was calculated from mean A-B and B-A data. This was derived from: ER=Papp(B-A)Papp(A-B)

[4] = CaCo-2 permeability (bi-directional); settings: human
Experimental: as §1, §2, §3, §4, §5, §6, §7

[5] = system: HepG2 human hepatocellular carcinoma cells; test: Cell viability (cytotoxicity, MTT) using HepG2; type: cell-based
Experimental: (§8) HepG2 human hepatocellular carcinoma cells were plated on 96-well tissue culture polystyrene plates for 24 h prior to dosing of the cells. The shortlisted hits were diluted in DMSO and serial dilutions are made 1% DMSO in growth media. Compounds at 8 concentrations in triplicate was then incubated for 72 h. Appropriate blanks and controls were run alongside the assay. One h prior to the end of the incubation period, the cells were loaded with MTT [yellow; 3-(4,5-dimethyl-2-thiazolyl)-2,5-diphenyl-2H-tetrazolium bromide], the plates were dried and re-solubilized using DMSO. The plates were then scanned at 570 nm using a plate reader.
(§9) The minimum effective concentration was determined from the lowest concentration whose mean value exceeds the significance level, provided either a clear dose–response relationship was observed, or at least two consecutive concentration points were above the significance level.

[6] = Cell viability (cytotoxicity, MTT) using HepG2; type: cell-based, human; settings: human, HepG2 cells, 72 h, summary sheet, read-out: MTT (AC50) Conc at which 50% of maximum efficacy is reached
Experimental: as §8, §9

[7] = Microsomal metabolic stability; type: in vitro ADME; settings: human, pooled liver microsomes
Experimental: Pooled liver microsomes were purchased from Xenotech (H0500) and were stored according to manufacturer’s instructions prior to use. […] A minus co-factor control incubation was included for each compound tested where 0.1 M phosphate buffer pH 7.4 was added instead of NADPH. Two control compounds were included with each species. All incubations were performed singularly for each shortlisted hit. Each compound was incubated for 0, 5, 15, 30 and 45 min. The minus co-factor was incubated for 45 min only. The reactions were stopped by transferring incubate into acetonitrile at the appropriate time points in a 1:3 ratio. The termination plates were centrifuged at 3000 rpm for 20 min at 4 °C to precipitate the protein. Following protein precipitation, the supernatant were combined in cassette of up to 4 compounds, internal standard for MS analysis was added and samples were analyzed using LC–MS/MS. From a plot of In peak area ratio (compound peak area/internal standard peak area) against time, the gradient of the lines were determined. Subsequently, half-life and intrinsic clearance were calculated using the following equations. Eliminationrateconstant(k)=(-gradient)Half-life(t1/2)(min)=0.693/kIntrinsicclearance(CLint)(μl/min/mgprotein)=Vx0.693/t1/2 where V = Incubation volume (µl) / Microsomal protein (mg)

[8] = system: human cancer cell lines; test: CellTiter-Glo viability (2D culture or 3D spheroids), cell line panel; type: cell-based; settings: SW780, RT-112, M059K and SKOV3 cells; 2.7 to 20 µM; 48 h
Experimental: Cell viability was determined using CellTiter-Glo® 2D or 3D cell viability assays (#G9242, #G9682, Promega). 500 cells/25 µl were seeded in flat bottom (#781,091, Greiner bio-one) or U-low adhesion (#4516, Corning) 384-well plate, 24 h prior to treatment. Increasing concentrations of compounds are deposited on cells using a HP Digital Drug Dispenser with DMSO total volume normalization. After 48 h, the CellTiter-Glo® 2D or 3D reagent was added (volume/volume) following manufacturer’s instructions. Plates were incubated at RT (room temperature) under agitation for 30 min and luminescence representing the number of viable cells was quantified with a Cytation 3 imaging reader (BioTek®). Experiments were performed independently three times with three technical replicas each.

[9] = system: DMS114; test: Boyden chamber transwell migration assay; type: cell-based, human; settings: 24 h
Experimental: Transwells with 5 μm pore size (83.3932.500; Sarstedt) were coated with 50 µl of 0.06 μg/μl Pure Col Collagen I (5005; Advanced BioMatrix) dissolved in 100% EtOH for a final concentration of 10 μg/cm^2. 10,000 – 15,000 cells were resuspended in serum-free medium or serum-free medium containing the appropriate treatment and seeded in the upper chamber of a 24 well plate containing the coated transwell. The lower chamber was filled with either serum-free medium or serum-free medium with bFGF (25 ng/ml). Transwell migration was allowed for 24 h (DMS114) or 48 h (HCT116) at 37 °C, 5% CO2. Inserts were washed twice with PBS and the remaining non-invading cells on the upper surface of the membrane were removed using a cotton swab. The cells were fixed in 4% paraformaldehyde (28908; Thermo Fisher Scientific) in PBS for 5 min at RT. Fixed cells were washed twice with PBS and stained with DAPI for 15 min at RT. Inserts were washed three times in PBS before images of DAPI-stained nuclei were acquired using a widefield Nikon Ti2 microscope at 40 × magnification. Nuclei were counted on the membrane areas using ImageJ software and plotted on Prism 9 software (GraphPad).

[10] = system: pFRS2Y436; test: IHC of pFRS2Y436 in SKOV3 flank tumor samples; type: in vivo, mice; settings: SKOV3 model; end of treatment
Experimental: IHC of tumor sections was performed by Sophistolab (Muttenz, Switzerland) on a Lecia BondMax instrument using Refine HRP-Kits (Leica DS9800). All buffer-solutions were purchased from Lecia Microsystems Newcastle, Ltd and used according to the manufacturer’s guidelines. Paraffin-slides were de-waxed, pre-treated and incubated as follows: ER-solution 2 for 10 min at 95 °C, ER-solution 2 for 20 min at 100 °C and ER-solution 2 for 30 min at 100 °C. pFRS2; Rabbit anti-Phospho FRS2 (PhosphoY 436, Abcam Limited; ab193363), dilution 1:150; phospho-p44/42 MAPK (Erk1/2Thr202/Tyr204) Rabbit mAb (Cell Signaling Technology #4370), dilution 1:1600. The IHC images were captured digitally using a Nikon Epifluorescence Eclipse Ti2 equipped with a Nikon DS-Ri2 color and a Nikon DS-Qi2 monochrome camera.

[11] = system: ERK (pT202/Y204); test: Immunoblotting, ERK phosphorylation; type: cell-based, human; settings: DAOY, SW780, M059K, SKOV3, AGS, DMS114 and RT-112 cells; 10 µM compound or 1 µM BGJ398
Experimental: (§10) Cells were serum starved o.n. and 10 µM compound or 1 µM (BGJ398) were added 3 h before stimulation with 100 ng/ml bFGF for 15 min. Cells were lysed in RIPA buffer containing protease inhibitor cocktail and lysates resolved by SDS-PAGE. Membranes were probed with primary antibodies against phospho-FRS2, FRS2, phospho-ERK1/2, ERK1/2, pAKT, AKT and tubulin. Integrated density of immuno-reactive bands was quantified using Adobe Photoshop CS3. Integrated densities of phospho bands relative to non-phospho bands of same protein were calculated and plotted as fold-change relative to untreated control conditions. Compounds and BGJ398 were added in DMSO and corresponding DMSO concentrations were used in control samples.

[12] = system: FRS2 (Y436) phosphorylation; test: Immunoblotting, FRS2 phosphorylation; type: cell-based, human; settings: RT-112 cells
Experimental: as §10

Oc1cc(Cl)cc2c1NC(c1ccc(Cl)cc1)C1CC=CC21 (centres unmarked) [Compound 12]
functional activity in SIA (result in words) ([1]; DAOY, bFGF-induced, 1, 5 and 10 µM): reduced invasion comparable to the parent compound 7
solubility ([2]; PBS, aqueous buffer, thermodynamic from solid, read-out: Mean Solubility): < 1 µM
solubility ([2]; PBS, aqueous buffer, thermodynamic from solid, read-out: Solubility Replicate 1): < 1 µM
solubility ([2]; PBS, aqueous buffer, thermodynamic from solid, read-out: Solubility Replicate 3): < 1 µM
solubility ([2]; PBS, aqueous buffer, thermodynamic from solid, read-out: Solubility Replicate 4): < 1 µM
solubility thermodynamic ([2]; aqueous buffer, thermodynamic from solid, PBS, overnight, summary sheet): < 1 µM
Solubility (class in words) ([2]; summary sheet): Very slightly
Comments: A2B permeation (result in words) [3]: Test compound not detectable in receiver compartments A2B. High C0 value A2B and B2A. Recovery low B2A. Possible solubility or binding issues. Accuracy of result questionable.
Papp B→A at 120 min, 10 μM ([4]; Caco-2, Mean Papp B-A, Caco-2, summary sheet): 7.53 ×10⁻⁶ cm/s
recovery at 120 min, 10 µM ([4]; Caco-2, pH 7.4, Mean % Recovery A2B, HBSS/HBSS, pH 7.4/7.4): 51.5%
recovery at 120 min, 10 µM ([4]; Caco-2, pH 7.4, Mean % Recovery B2A, HBSS/HBSS, pH 7.4/7.4): 14.4%
Papp B→A at 120 min, 10 μM ([4]; Caco-2, pH 7.4, Mean Papp B2A, HBSS/HBSS, pH 7.4/7.4): 7.53 ×10⁻⁶ cm/s
Papp B→A at 120 min, 10 μM ([4]; Caco-2, pH 7.4, Papp B2A Replicate 1, HBSS/HBSS, pH 7.4/7.4): 6.28 ×10⁻⁶ cm/s
Papp B→A at 120 min, 10 μM ([4]; Caco-2, pH 7.4, Papp B2A Replicate 2, HBSS/HBSS, pH 7.4/7.4): 8.78 ×10⁻⁶ cm/s
MEC ([5]; 72h, 3 replicas, NR = No response (Summary sheet)): 9.85 µM
MTT (MEC) Minimum effective concentration ([5]; 72 h, summary sheet): 9.85 µM
AC50 at 72 h [6]: 17500 nM
half-life at 1 µM ([7]; pH 7.4, liver microsomes, read-out: t1/2): 2.5 min
microsomal CLint at 1 µM ([7]; pH 7.4, read-out: Metabolic stability - Intrinsic clearance (CI)): 555 µL/min/mg

CCN1CCN(c2ccc(Nc3cc(N(C)C(=O)Nc4c(Cl)c(OC)cc(OC)c4Cl)ncn3)cc2)CC1 [BGJ398, 3-(2,6-Dichloro-3,5-dimethoxy-phenyl)-1-{6-[4-(4-ethyl-piperazin-1-yl)-phenylamino]-pyrimidin-4-yl}-1-methyl-urea, reference compound]
EC50 [1]: 470 nM
EC50 ([1]; Homo sapiens, Daoy): 468 nM
viability (result in words) [8]: reduced viability
concentration at which significant reduction of transwell migration was observed [9]: 1 µM
pFRS2 Y436 in tumor tissues by IHC (result in words) [10]: No clear difference in pFRS2 Y436
basal and bFGF-induced phosphorylation of ERK (result in words) [11]: inhibited basal and bFGF-induced phosphorylation
basal and bFGF-induced phosphorylation of FRS2Y436 (result in words) [12]: reduced basal and bFGF-induced phosphorylation
